Test results from patent publication US20210122724A1, “TETRACARBOXYLIC DIANHYDRIDE, CARBONYL COMPOUND, POLYIMIDE PRECURSOR RESIN, AND POLYIMIDE” (ENEOS Corporation, priority 2018, published 2021).

Experiment: Solubility of tetracarboxylic dianhydride in organic solvent (visual, 50 mg sample)
Assay type: physicochemical
Experimental: As the samples, the tetracarboxylic dianhydride (exo/exo type BzDA) obtained in Example 2 and the tetracarboxylic dianhydride (endo/endo type BzDA) obtained in Comparative Example 2 were separately used to confirm the solubility of each tetracarboxylic dianhydride in an organic solvent as follows. Specifically, after 50 mg of the sample was added to a screw tube, an organic solvent was added little by little into the screw tube, and the amount of the sample dissolved was visually confirmed. Note that, as the organic solvents, N,N′-dimethylacetamide and N-methyl-2-pyrrolidone were used to confirm the solubility in the solvents.

| SMILES | concentration of solution that can be prepared (solubility) (solvent N,N′-dimethylacetamide) | concentration of solution that can be prepared (solubility) (solvent N-methyl-2-pyrrolidone) |
| --- | --- | --- |
| O=C1OC(=O)C2C3CC(CC3c3ccc(C4CC5CC4C4C(=O)OC(=O)C54)cc3)C12 (stereo not drawn) [endo/endo type BzDA] | < 1 % by mass | < 3.5 % by mass |
| O=C1OC(=O)C2C3CC(CC3c3ccc(C4CC5CC4C4C(=O)OC(=O)C54)cc3)C12 (stereo not drawn) [exo/exo type BzDA, exo,exo-5,5′-(1,4-phenylene)bis(bicyclo[2.2.1]heptane-2,3-exo-dicarboxylic anhydride)] | ≥ 5 % by mass | ≥ 5 % by mass |
